Measurements: patent publication US20250327032A1, “AGENT FOR AVOIDING IMMUNE RESPONSE OF TRANSGENIC CELLS” (HYPERION DRUG DISCOVERY CO., LTD., priority 2021, published 2025)

Test system: human mesenchymal stem cells
Assay: Introduction of GFP mRNA with NFκB inhibitors other than nuclear translocation inhibitors (Example 12), yield of GFP-positive cells
Assay type: cell-based
Details: JSH-23 1 μM; GFP mRNA 10 pg/cell
Method: Improvement in the yield of transgenic cells when using an NFκB inhibitor other than the NFκB nuclear translocation inhibitor of the present invention was investigated. As the NFκB inhibitors, BAY11 (IKK inhibitor), dexamethasone (IκB degradation inhibitor), and 6-amino-4-(4-phenoxyphenethylamino)quinazoline (p65 acetylation inhibitor) were used to perform introduction of genes. For comparison, introduction of gene was performed under the same conditions using JSH-23, an NFκB nuclear translocation inhibitor, instead of the above-mentioned NFκB inhibitors. The specific procedure is as follows.
Human mesenchymal stem cells were seeded in a 6-well plate to be about 10,000 cells/cm^2. […]
Twenty-four hours after the final introduction of genes, the cells were detached with a cell detachment solution, centrifuged at 600×g for 5 minutes using a centrifuge, to collect the cells. The collected cells were counted using a hemocytometer. Furthermore, the GFP-positive percentage of the collected cells was measured using a flow cytometer. The yield of the number of GFP-positive cells was calculated from the number of cells counted and the GFP-positive percentage.

For `Cc1ccc(NCCCc2ccccc2)c(N)c1` [JSH-23], the “number of GFP-positive (transgenic) cells relative to control (set to 1)” value was ≥ 7 times.
